23 compounds from patent US10927111B2, “Inhibitors of RAF kinases” (Kinnate Biopharma Inc., priority 2019, dated 2021) can be followed below.

SMILES strings stand for the structures.

In one assay the target is human RAF1 (Homo sapiens (Human), UniProt P04049). The experiment in a line: Protein kinase assay (radiometric 33P-ATP, MEK1 (K97R) substrate). The conditions noted are these: human MEK1 (K97R) substrate 3 micromolar, ATP 10 micromolar, 10-dose IC50 mode; read-out: RAF-1 IC50. The assay is classed as biochemical. On the procedure: Protein kinase assay: Assay platform was used to measure kinase/inhibitor interactions as described previously (Anastassiadis et al., 2011). In brief, for each reaction, kinase and substrate were mixed in a buffer containing 20 mM HEPES (pH 7.5), 10 mM MgCl2, 1 mM EGTA, 0.02% Brij35, 0.02 mg/mL BSA, 0.1 mM Na3VO4, 2 mM DTT, and 1% DMSO. All compounds were solubilized in DMSO. Compounds were then added to each reaction mixture via acoustic dispense using an ECHO 550 nanoliter dispenser. For human RAF1 testing, human MEK1 (K97R) was used as a substrate at a concentration of 3 micromolar, with a final ATP concentration of 10 micromolar. For human BRAF testing, human MEK1 (K97R) was used as a substrate at 1 micromolar concentration, with a final ATP concentration of 25 micromolar. […] After a 20-min incubation, ATP (Sigma-Aldrich, St. Louis, Mo. 63178) and [g33P] ATP (specific activity 10 microCi/microliter) purchased at PerkinElmer (Boston, Mass., 02118 Cat #BLU 003H250UC) were added at a final total concentration of 10 mM. Reactions were carried out at room temperature for 2 hr and spotted onto P81 ionexchange cellulose chromatography paper (Reaction Biology). Filter paper was washed in 0.75% phosphoric acid to remove unincorporated ATP. The percent remaining kinase activity relative to a vehicle-containing (DMSO) kinase reaction was calculated for each kinase/inhibitor pair. IC50 values were calculated using Prism 5 (GraphPad).
human RAF1, sequence (P04049 whole entry): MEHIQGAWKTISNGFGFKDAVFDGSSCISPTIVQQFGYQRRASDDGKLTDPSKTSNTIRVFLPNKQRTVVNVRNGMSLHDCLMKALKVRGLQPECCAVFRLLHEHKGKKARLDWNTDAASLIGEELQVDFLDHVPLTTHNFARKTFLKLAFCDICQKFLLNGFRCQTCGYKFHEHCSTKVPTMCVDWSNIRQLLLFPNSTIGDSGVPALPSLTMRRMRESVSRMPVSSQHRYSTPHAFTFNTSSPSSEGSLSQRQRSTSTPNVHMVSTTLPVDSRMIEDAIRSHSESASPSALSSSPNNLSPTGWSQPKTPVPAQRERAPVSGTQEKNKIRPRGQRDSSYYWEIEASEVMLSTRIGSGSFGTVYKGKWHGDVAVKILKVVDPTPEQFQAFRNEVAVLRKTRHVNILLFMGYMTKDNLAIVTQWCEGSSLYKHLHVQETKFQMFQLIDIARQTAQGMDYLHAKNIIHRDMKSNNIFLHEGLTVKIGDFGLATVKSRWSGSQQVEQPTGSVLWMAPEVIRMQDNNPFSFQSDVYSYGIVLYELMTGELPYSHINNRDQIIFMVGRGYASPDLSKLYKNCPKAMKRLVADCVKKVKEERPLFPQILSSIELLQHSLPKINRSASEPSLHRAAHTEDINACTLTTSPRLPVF
For orientation: IC50 means the concentration at which inhibition is half-maximal. Turning to `CNc1ncc2cc(-c3cc(NC(=O)c4cc[n+]([O-])c(C(F)(F)F)c4)ccc3C)c(C)nc2n1` [Example 76, 4-([4-methyl-3-[7-methyl-2-(methylamino)pyrido[2,3-d]pyrimidin-6-yl]phenyl]carbamoyl)-2-(trifluoromethyl)pyridin-1-ium-1-olate], the IC50 is no more than 10 nM.

For `CNc1ncc2cc(-c3cc(NC(=O)N4CC[C@H](CC(F)(F)F)C4)c(F)cc3C)cnc2n1` [Example 30, (R)-N-(2-fluoro-4-methyl-5-(2-(methylamino)pyrido[2,3-d]pyrimidin-6-yl)phenyl)-3-(2,2,2-trifluoroethyl)pyrrolidine-1-carboxamide], the 50% inhibitory concentration (IC50) is no more than 10 nM. In the case of `CNc1ncc2cc(-c3cc(NC(=O)N4CCO[C@@H](C(F)(F)F)C4)c(F)cc3C)c(C)nc2n1` [Example 10, (2R)-N-[2-fluoro-4-methyl-5-[7-methyl-2-(methylamino)pyrido[2,3-d]pyrimidin-6-yl]phenyl]-2-(trifluoromethyl)morpholine-4-carboxamide], the IC50 is no more than 10 nM. Take `CNc1ncc2cc(-c3cc(NC(=O)N4CCO[C@@H](C(F)(F)F)C4)c(F)cc3C)cnc2n1` [Example 62, (2R)-N-[2-fluoro-4-methyl-5-[2-(methylamino)pyrido[2,3-d]pyrimidin-6-yl]phenyl]-2-(trifluoromethyl)morpholine-4-carboxamide]: the IC50 is no more than 10 nM. On to `Cc1ccc(NC(=O)c2ccnc(C(F)(F)F)c2)cc1-c1cc2cnc(NC3CCN(C)CC3)nc2nc1C` [Example 42, N-(4-methyl-3-(7-methyl-2-((1-methylpiperidin-4-yl)amino)pyrido[2,3-d]pyrimidin-6-yl)phenyl)-2-(trifluoromethyl)isonicotinamide], for which the half-maximal inhibitory concentration (IC50) was no more than 10 nM. Still for that read-out and setting: then `CNc1ncc2cc(-c3cc(NC(=O)N4CCO[C@H](C(F)(F)F)C4)c(F)cc3C)cnc2n1` [Example 61, (2S)-N-[2-fluoro-4-methyl-5-[2-(methylamino)pyrido[2,3-d]pyrimidin-6-yl]phenyl]-2-(trifluoromethyl)morpholine-4-carboxamide], with no more than 10 nM; and `Cc1ccc(NC(=O)c2ccnc(C(F)(F)F)c2)cc1-c1cc2cnc(NCCN3CCOCC3)nc2nc1C` [Example 38, N-(4-methyl-3-(7-methyl-2-((2-morpholinoethyl)amino)pyrido[2,3-d]pyrimidin-6-yl)phenyl)-2-(trifluoromethyl)isonicotinamide], with no more than 10 nM; and `CNc1ncc2cc(-c3cc(NC(=O)N4CC[C@@H](CC(F)(F)F)C4)c(F)cc3C)cnc2n1` [Example 31, (S)-N-(2-fluoro-4-methyl-5-(2-(methylamino)pyrido[2,3-d]pyrimidin-6-yl)phenyl)-3-(2,2,2-trifluoroethyl)pyrrolidine-1-carboxamide], with no more than 10 nM.

For `CNc1ncc2cc(-c3cc(NC(=O)N4CCO[C@@H](C(F)(F)F)C4)ccc3C)c(C)nc2n1` [Example 12, (2R)-N-[4-methyl-3-[7-methyl-2-(methylamino)pyrido[2,3-d]pyrimidin-6-yl]phenyl]-2-(trifluoromethyl)morpholine-4-carboxamide], the IC50 is no more than 10 nM. As to `CNc1ncc2cc(-c3cc(NC(=O)N4CC=C(C(F)(F)F)C4)c(F)cc3C)c(C)nc2n1` [Example 3, N-(2-fluoro-4-methyl-5-(7-methyl-2-(methylamino)pyrido[2,3-d]pyrimidin-6-yl)phenyl)-3-(trifluoromethyl)-2,5-dihydro-1H-pyrrole-1-carboxamide], the IC50 was no more than 10 nM.

As to `CNc1ncc2cc(-c3cc(NC(=O)c4ccnc(C(F)(F)F)c4)ccc3C)cnc2n1` [Example 53, N-[4-methyl-3-[2-(methylamino)pyrido[2,3-d]pyrimidin-6-yl]phenyl]-2-(trifluoromethyl)pyridine-4-carboxamide], the IC50 is no more than 10 nM. On the same count and under the same terms, then `C=Cc1nc2nc(NC)ncc2cc1-c1cc(NC(=O)c2ccnc(C(F)(F)F)c2)ccc1C` [Example 65, N-[3-[7-ethenyl-2-(methylamino)pyrido[2,3-d]pyrimidin-6-yl]-4-methylphenyl]-2-(trifluoromethyl)pyridine-4-carboxamide], with no more than 10 nM. For the compound `CNc1ncc2cc(-c3cc(NC(=O)c4cncc(C(F)(F)F)c4)ccc3C)c(C)nc2n1` [Example 32, N-(4-methyl-3-(7-methyl-2-(methylamino)pyrido[2,3-d]pyrimidin-6-yl)phenyl)-5-(trifluoromethyl)nicotinamide], the IC50 is no more than 10 nM.

As to `CNc1ncc2cc(-c3cc(NC(=O)c4cccc(C(F)(F)F)c4)cnc3C)c(C)nc2n1` [Example 44, N-(6-methyl-5-(7-methyl-2-(methylamino)pyrido[2,3-d]pyrimidin-6-yl)pyridin-3-yl)-3-(trifluoromethyl)benzamide], the IC50 was no more than 10 nM.

In the case of `CNc1ncc2cc(-c3cc(NC(=O)N4CCC5(CCC(F)(F)C5)C4)c(F)cc3C)c(C)nc2n1` (centres unmarked) [Example 15, 7,7-difluoro-N-(2-fluoro-4-methyl-5-(7-methyl-2-(methylamino)pyrido[2,3-d]pyrimidin-6-yl)phenyl)-2-azaspiro[4.4]nonane-2-carboxamide], the IC50 was no more than 10 nM. For `CNc1ncc2cc(-c3cc(NC(=O)N4CC[C@H](OC(F)(F)F)C4)ccc3C)c(C#N)nc2n1` [Example 79], the IC50 is no more than 10 nM. `CNc1ncc2cc(-c3cc(NC(=O)N4CCO[C@H](C(F)(F)F)C4)ccc3C)cnc2n1` [Example 57]: the IC50 was no more than 10 nM. Consider `CNc1ncc2cc(-c3cc(NC(=O)c4cnnc(C(F)(F)F)c4)ccc3C)c(C)nc2n1` [Example 50, N-(4-methyl-3-(7-methyl-2-(methylamino)pyrido[2,3-d]pyrimidin-6-yl)phenyl)-6-(trifluoromethyl)pyridazine-4-carboxamide], for which the IC50 is no more than 10 nM.

The assay is the same for the next values; noted with them: read-out: RAF-1 IC50.
Consider `CNc1ncc2cc(-c3cc(NC(=O)N4CCC(C(F)(F)F)C4)ccc3C)cnc2n1` (stereo in doubt) [Example 55, (3S)—N-[4-methyl-3-[2-(methylamino)pyrido[2,3-d]pyrimidin-6-yl]phenyl]-3-(trifluoromethyl)pyrrolidine-1-carboxamide], for which the IC50 is no more than 10 nM. For the compound `CNc1ncc2cc(-c3cc(NC(=O)N4CCO[C@H](CC(F)(F)F)C4)c(F)cc3C)c(C)nc2n1` [Example 25, (R)-N-(2-fluoro-4-methyl-5-(7-methyl-2-(methylamino)pyrido[2,3-d]pyrimidin-6-yl)phenyl)-2-(2,2,2-trifluoroethyl)morpholine-4-carboxamide], the IC50 is no more than 10 nM. Consider `CNc1ncc2cc(-c3cc(NC(=O)N4CCO[C@H](C(C)(C)C)C4)c(F)cc3C)c(C)nc2n1` [Example 22, (R)-2-(tert-butyl)-N-(2-fluoro-4-methyl-5-(7-methyl-2-(methylamino)pyrido[2,3-d]pyrimidin-6-yl)phenyl)morpholine-4-carboxamide], for which the IC50 was no more than 10 nM.

On to `CNc1ncc2cc(-c3cc(NC(=O)N4CCO[C@@H](CC(F)(F)F)C4)c(F)cc3C)c(C)nc2n1` [Example 26, (S)-N-(2-fluoro-4-methyl-5-(7-methyl-2-(methylamino)pyrido[2,3-d]pyrimidin-6-yl)phenyl)-2-(2,2,2-trifluoroethyl)morpholine-4-carboxamide], for which the IC50 was no more than 10 nM. For `CNc1ncc2cc(-c3cc(NC(=O)N4CC[C@@H](SC(F)(F)F)C4)ccc3C)c(C)nc2n1` [Example 4], the IC50 is 10 to 100 nM.
